From patent US11408038B2, “N-cadherin and FGFR1 and/or FGFR4 for use in predicting the response of patients to a lung cancer treatment and method and kit based on said use” (FUNDACIÓN DE INVESTIGACIÓN HOSPITAL 12 DE OCTUBRE, priority 2017, dated 2022)

How the values were obtained:
[1] = tested on: mesenchymal bladder cancer cell lines; settings: cited from earlier work
H226 cell line = assay: Cell proliferation (growth curve) with FGFR inhibitors, H226; format: cell-based; settings: H226, endogenous FGFR1 and high N-cadherin; 0.5 μM or 1 μM
Protocol: (§1) 3,500 cells were seeded per well in 12-well plates. At 24 hours (day 0) the cells of the first point of the curve were fixed, and every 24-48 hours a new point of the curve was fixed and the medium of the rest was changed. The fixed plates were preserved with the cells in PBS at 4° C. until all the points of the curve were fixed. The plates were then stained with crystal violet for 20 minutes, washed and allowed to dry. Once dry, 20% acetic acid was added to each well to dilute the crystal violet, and the absorbance at 595 nm was measured on a VICTOR optical reading device (PerkinElmer). All absorbances were standardised in relation to the absorbance of day 0 of each experimental condition. Finally, this standardised value (growth relative to day 0 on the Y-axis) was plotted against time (days, X-axis).
(§2) To verify whether N-cadherin expression is decisive in the determination of the efficacy of FGFR inhibition in lung cancer treatment, the efficacy of two selective FGFR inhibitors, in terms of growth inhibition, was tested. For this purpose, cell lines with high endogenous expression of FGFR1 and/or FGFR4 and low expression of N-cadherin (A549 and H460), or with high endogenous expression of FGFR1 and/or FGFR4 and high expression of N-cadherin (H520 and H226) were selected. […]

H520 cell line = assay: Cell proliferation (growth curve) with FGFR inhibitors, H520; format: cell-based; settings: H520, endogenous FGFR1, FGFR4 and high N-cadherin; 0.5 μM or 1 μM
Protocol: as §1, §2

[2] = tested on: FGFR-related signalling pathways (pSTAT3, pAKT, p-p42/p44); assay: Western blot of FGFR-related signalling pathways in treated PDX TP91; format: in vivo, mice; settings: TP91 tumours, high N-cadherin
Protocol: (§3) The total proteins of the tumours from xenografts were obtained by adding the lysis buffer to the previously pulverized tissue fragment in a mortar pre-cooled with liquid nitrogen, to avoid thawing the fragment; it was then incubated on ice for 2 hours, stirring every 10 minutes, and the volume was collected in 2 mL tubes that were centrifuged at 15,000×g for 10 minutes at 4° C. to eliminate the remnants of undissolved tissue, and the supernatant was stored at −80° C. The extraction buffer and the quantification method used were the same as in the case of protein extraction from cell lines.
Protein immunodetection was performed according to a standard protocol on PDVF membranes (GE Healthcare). The proteins were separated on SDS polyacrylamide gels using a 1X Tris HCl 0.13 M electrophoresis buffer, 0.95 M glycine, 0.5% SDS, and were transferred to PDVF membranes, using a Trans-Blot Turbo kit (BioRad). The transfer was performed at 400 mA for 3 hours in transfer buffer (0.025 M TrisHCl, 0.2 M glycine, 20% methanol). The membranes were blocked for 1 hour under stirring with the blocking buffer (TBS, 0.1% Tween20 and 1% BSA). Subsequently, the membranes were incubated with the appropriate dilution of primary antibody for 16 hours at 4° C. After this incubation, the membranes were washed with washing buffer (TBS 0.1% Tween-20) and incubated with a 1:5,000 dilution of the appropriate peroxidase-conjugated secondary antibody, for one hour at ambient temperature. The detection was performed using a chemiluminescent reaction (Clarity ECL, Biorad) and visualization using luminescence detection equipment (ChemiDoc, BioRad).
The route of administration of the drug was oral.

[3] = tested on: TP13 epidermoid carcinoma PDX (low N-cadherin); assay: PDX treatment, tumour growth, model TP13; format: in vivo, mice; settings: 7.5 mg/kg/day oral, Monday to Friday
Protocol: (§4) Tumours from patients with non-small cell lung cancer, covered with Matrigel (BD #356234) are implanted in the flank of immunocompromised nude mice of 5-6 weeks of age, under anaesthesia by isofluorane inhalation and under analgesia by buprenorphine. To perform the implant, a small cut is made in the flank of the mouse under anaesthesia and analgesia and the tumour fragment is inserted, about 100-150 mm^3 in volume.
(§5) The size of the tumours generated by the xenografts was measured weekly with a measuring gauge. The shortest and longest length of each tumour was measured and the tumour volume was calculated with the formula: 0.5×(longest dimension)×(shortest dimension)^2.
(§6) For this purpose, the model of interest was implanted in 4-6 mice per treatment group as stated above, and the growth of the tumours generated was monitored. […]
(§7) The growth of the tumours is shown in graphs of tumour growth against time, where each measurement of tumour volume is relativised with the initial measurement after commencing the treatment, and the median and mean error are shown for each treatment group. The variation in tumour volume is represented with bar graphs which show the increase (or decrease), expressed as a percentage, of the volume of each tumour with regard to the initial volume in each treatment group

[4] = tested on: TP114 epidermoid carcinoma PDX (high N-cadherin); assay: PDX treatment, tumour growth, model TP114; format: in vivo, mice; settings: 7.5 mg/kg/day oral
Protocol: as §4, §5, §6, §7

[5] = tested on: TP91 adenocarcinoma PDX (high N-cadherin); assay: PDX treatment, tumour growth, model TP91; format: in vivo, mice; settings: 7.5 mg/kg/day oral
Protocol: as §4, §5, §6, §7

lung cancer cell lines = assay: In vitro experiments with the two FGFR inhibitors, growth inhibition overall; format: cell-based; settings: BGJ398 versus AZD4547
Protocol: To verify whether N-cadherin expression is decisive in the determination of the efficacy of FGFR inhibition in lung cancer treatment, the efficacy of two selective FGFR inhibitors, in terms of growth inhibition, was tested. For this purpose, cell lines with high endogenous expression of FGFR1 and/or FGFR4 and low expression of N-cadherin (A549 and H460), or with high endogenous expression of FGFR1 and/or FGFR4 and high expression of N-cadherin (H520 and H226) were selected. In these lines, an analysis was performed on the effect on cell proliferation of two selective FGFR inhibitors: BGJ398 and AZD4547 (SELLECKCHEM, Refs. S2183 and S2801 respectively) with regard to time.

A549 cell line = assay: Cell proliferation (growth curve) with FGFR inhibitors, A549; format: cell-based; settings: A549, endogenous FGFR1 and FGFR4, low N-cadherin; 0.5 μM or 1 μM
Protocol: as §1, §2

[6] = tested on: TP96 epidermoid carcinoma PDX (high FGFR1, FGFR4 and N-cadherin)
Protocol: as §4, §5
For this purpose, the model of interest was implanted in 4-6 mice per treatment group as stated above, and the growth of the tumours generated was monitored. […] Once the groups were established, the treatments were commenced, lasting between 3 and 5 weeks, depending on the growth rate of each model and on the drug or drugs employed.
The concentration of AZD4547 employed was 7.5 mg/kg/day, administered from Monday to Friday. The route of administration of the drug was oral. At the end of the treatment, the mice were sacrificed and the tumours processed and stored as stated above.
as §7

[7] = tested on: TP60 adenocarcinoma PDX (low N-cadherin); assay: PDX treatment, tumour growth, model TP60; format: in vivo, mice; settings: 7.5 mg/kg/day oral, Monday to Friday
Protocol: as §4, §5, §6, §7

[8] = tested on: FGFR-related signalling pathways; assay: Western blot of FGFR-related signalling pathways in treated PDX TP60; format: in vivo, mice; settings: TP60 tumours, low N-cadherin
Protocol: as §3
Protein immunodetection was performed according to a standard protocol on PDVF membranes (GE Healthcare). The proteins were separated on SDS polyacrylamide gels using a 1X Tris HCl 0.13 M electrophoresis buffer, 0.95 M glycine, 0.5% SDS, and were transferred to PDVF membranes, using a Trans-Blot Turbo kit (BioRad). The transfer was performed at 400 mA for 3 hours in transfer buffer (0.025 M TrisHCl, 0.2 M glycine, 20% methanol). The membranes were blocked for 1 hour under stirring with the blocking buffer (TBS, 0.1% Tween20 and 1% BSA). […] The detection was performed using a chemiluminescent reaction (Clarity ECL, Biorad) and visualization using luminescence detection equipment (ChemiDoc, BioRad). […]

H460 cell line = assay: Cell proliferation (growth curve) with FGFR inhibitors, H460; format: cell-based; settings: H460, endogenous FGFR1, low N-cadherin; 0.5 μM or 1 μM
Protocol: as §1, §2

Row | Molecule | responsiveness of mesenchymal versus epithelial bladder cancer cell lines [1] | effect on cell growth (relative growth with regard to time) (H226 cell line) | effect on cell growth (relative growth with regard to time) (H520 cell line) | levels of pAKT [2] | levels of pSTAT3 [2] | p-p42/p44 activation [2] | effect on tumour growth [3] | average reduction in volume with regard to the control condition ([4]; TP114, high N-cadherin, Monday to Friday) | complete tumour regression, fraction of the tumours treated ([4]; TP114) | average reduction in volume with regard to the control condition ([5]; TP91, high N-cadherin, Monday to Friday) | complete tumour regression, fraction of the tumours treated ([5]; TP91) | efficacy in the in vitro experiments, compared between the two inhibitors (lung cancer cell lines) | effect on cell growth (relative growth with regard to time) (A549 cell line) | average reduction in volume with regard to the control condition ([6]; TP96, high FGFR1, FGFR4 and N-cadherin, 7.5 mg/kg/day oral, Monday to Friday) | complete tumour regression, fraction of the tumours treated ([6]; TP96, 7.5 mg/kg/day oral) | response to the treatment ([6]; TP96, partial response = average reduction in tumour volume of 50% or greater vs volume at commencement of treatment) | effect on tumour growth [7] | activation of the FGFR-related signalling pathways studied [8] | effect on cell growth (relative growth with regard to time) (H460 cell line)
1 | CN1CCN(c2ccc3nc(-c4c(N)c5c(F)cccc5[nH]c4=O)[nH]c3c2)CC1 [TI-258] | more responsive |  |  |  |  |  |  |  |  |  |  |  |  |  |  |  |  |  | 
2 | AZD4547 |  | reduce the growth | reduce the growth | reduction | reduction | modest reduction | no effect | 25.5% | ⅖ | 14.4% | ⅕ | greatest efficacy | do not exert a significant effect | 1.4% | ⅖ | partial response | no effect | does not alter the activation | do not exert a significant effect
3 | CCN1CCN(c2ccc(Nc3cc(N(C)C(=O)Nc4c(Cl)c(OC)cc(OC)c4Cl)ncn3)cc2)CC1 [BGJ398] |  | reduce the growth | reduce the growth |  |  |  |  |  |  |  |  |  | do not exert a significant effect |  |  |  |  |  | do not exert a significant effect
